Source: US20260109694A1, “HETEROCYCLIC COMPOUNDS AND USES THEREOF” (Kumquat Biosciences Inc., priority 2023, published 2026)

What was measured:
[1] = molecular target: T1, PTP1B (Homo sapiens, UniProt P18031); test: Phosphatase activity assay (DiFMUP substrate); type: biochemical; conditions: value bin printed in column head
T1 sequence (P18031 1-435): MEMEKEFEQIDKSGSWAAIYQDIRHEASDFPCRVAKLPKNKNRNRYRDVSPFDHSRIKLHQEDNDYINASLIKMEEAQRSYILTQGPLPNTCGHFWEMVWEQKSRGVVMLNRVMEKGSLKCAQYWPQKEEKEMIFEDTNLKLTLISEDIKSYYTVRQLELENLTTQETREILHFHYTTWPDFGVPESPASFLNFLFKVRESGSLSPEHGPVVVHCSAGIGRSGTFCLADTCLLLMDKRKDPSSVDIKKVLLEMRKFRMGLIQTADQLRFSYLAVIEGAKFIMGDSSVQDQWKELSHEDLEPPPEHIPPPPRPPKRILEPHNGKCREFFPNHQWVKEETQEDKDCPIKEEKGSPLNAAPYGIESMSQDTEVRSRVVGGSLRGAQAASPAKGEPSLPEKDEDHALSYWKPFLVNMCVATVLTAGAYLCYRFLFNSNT
Experimental: (§1) The selectivity and potency of a small molecule PTPN2 inhibitor as provided herein against one or more protein tyrosine phosphatase (PTP) enzymes, and specifically against PTPN2, is assessed in various ways. The one or more PTP enzymes comprise Mycobacterium protein tyrosine phosphatase A (mPTPA), Mycobacterium protein tyrosine phosphatase B (mPTPB), PTPN1 (i.e., PTP1B), PTPN2 (i.e., TC-PTP), PTPN22 (i.e., LYP), SHP-1, SHP-2, FAP-1, Meg2, HePTP, Laforin, VHX, VHR, LMWPTP, Cdc14A, LAR, CD45, PTPRG, a fragment thereof, a variant thereof, and a combination thereof. Selectivity and potency of a small molecule PTPN2 inhibitor is evaluated using a PTP activity inhibition assay. The assay is performed using a buffer comprising 50 mM HEPES buffer pH 7.5, 150 mM NaCl, 0.5 mM EDTA, 1 mM DTT, 0.001% Tween-20.
(§2) The assay is performed using a phosphated substrate, e.g., 10 mM 6,8-Difluoro-4-Methylumbelliferyl Phosphate (DIFMUP) that is stored at −20° C. Alternatively or in addition to, the assay is performed using other phosphated substrate (e.g., fluorescein diphosphate). Each PTP enzyme is diluted in the assay buffer
(§3) The assay can be carried out at room temperature in multiplate format, e.g., using 384 well plates. A small molecule PTPN2 inhibitor dissolved in DMSO at one of 10 concentrations from a serial dilution or DMSO alone for control is added to each well. A mixture of the assay buffer comprising PTP enzyme (e.g., 0.025 ng/ul PTPN2) is added to each well and mixed for approximately 2 minutes. The reaction is initiated by adding DiFMUP diluted in the assay buffer to a final concentration of approximately 45 µM DiFMUP in PTPN2 assay. For each PTP enzyme, DiFMUP is added at the Km (Michaelis constant) of the enzyme that had been independently determined. The phosphatase activity of the PTP enzyme is assessed by monitoring appearance of a fluorescent product (6,8-difluoro-7-hydroxyl-4-coumarin (DiFMU) from DiFMUP) continuously for about 15 to 30 minutes, using the INFINITE M1000Pro plate reader (Tecan) with excitation at 360 nm and emission at 450 nm (cutoff filter at 435 nm) for DiFMU. Each assay is performed at least in duplicate. The rate (e.g., the initial rate) of DiFMU formation is plotted against the concentration of the small molecule PTPN2 inhibitor, and the data is fitted (e.g., using a 4-parameter equation) to determine the inflection point of the fit as the IC50 of the small molecule PTPN2 inhibitor for a specific enzyme. Utilizing this assay, the ability of the compounds in Table 1 to inhibit PTPN2 and PTP1B has been assessed. Table 3 summarizes the IC50 values.

[2] = molecular target: T2, PTPN2 (Homo sapiens, UniProt P17706); test: Phosphatase activity assay (DiFMUP substrate); type: biochemical; conditions: value bin printed in column head
T2 sequence (P17706 1-415): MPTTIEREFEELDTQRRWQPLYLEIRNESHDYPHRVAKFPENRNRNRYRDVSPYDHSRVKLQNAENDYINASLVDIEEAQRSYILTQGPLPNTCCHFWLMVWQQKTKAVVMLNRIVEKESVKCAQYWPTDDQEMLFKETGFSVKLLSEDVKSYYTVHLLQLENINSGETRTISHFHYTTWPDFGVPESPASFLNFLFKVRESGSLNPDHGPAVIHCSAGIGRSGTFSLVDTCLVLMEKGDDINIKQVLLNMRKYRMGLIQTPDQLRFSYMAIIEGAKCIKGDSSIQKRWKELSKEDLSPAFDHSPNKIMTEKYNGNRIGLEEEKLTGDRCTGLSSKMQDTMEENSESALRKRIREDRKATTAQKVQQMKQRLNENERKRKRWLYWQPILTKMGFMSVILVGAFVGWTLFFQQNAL
Experimental: as §1, §2, §3

SMILES | IC50 [1] [nM] | IC50 [2] [nM]
CC(OC(=O)[C@@H](N)C(C)C)OC(=O)N1CC(c2ccc(O)c(N3CC(=O)NS3(=O)=O)c2F)=C[C@H]1CCC1CCC1 (stereo partly drawn) [Compound 158, 1-((L-valyl)oxy)ethyl (2R)-2-(2-cyclobutylethyl)-4-(3-(1,1-dioxido-4-oxo-1,2,5-thiadiazolidin-2-yl)-2-fluoro-4-hydroxyphenyl)-2,5-dihydro-1H-pyrrole-1-carboxylate] | ≤ 1000 | ≤ 1000
CC(C)C(=O)OCOc1ccc(C2=C[C@@H](CCC3CCC3)NC2)c(F)c1N1CC(=O)NS1(=O)=O [Compound 160, (R)-(4-(5-(2-cyclobutylethyl)-2,5-dihydro-1H-pyrrol-3-yl)-2-(1,1-dioxido-4-oxo-1,2,5-thiadiazolidin-2-yl)-3-fluorophenoxy)methyl isobutyrate] | ≤ 1000 | ≤ 1000
CC(=O)OC(OC(=O)N1CC(c2ccc(O)c(N3CC(=O)NS3(=O)=O)c2F)=C[C@H]1CCC1CCC1)C(C)C (stereo partly drawn) [Compound 157, 1-acetoxy-2-methylpropyl (2R)-2-(2-cyclobutylethyl)-4-(3-(1,1-dioxido-4-oxo-1,2,5-thiadiazolidin-2-yl)-2-fluoro-4-hydroxyphenyl)-2,5-dihydro-1H-pyrrole-1-carboxylate] | ≤ 1000 | ≤ 1000
CC(C)CC[C@H]1C=C(c2ccc(O)c(N3CC(=O)NS3(=O)=O)c2F)CN1C(=O)OC(C)OC(=O)C(C)C (stereo partly drawn) [Compound 165, 1-(isobutyryloxy)ethyl (2S)-4-(3-(1,1-dioxido-4-oxo-1,2,5-thiadiazolidin-2-yl)-2-fluoro-4-hydroxyphenyl)-2-isopentyl-2,5-dihydro-1H-pyrrole-1-carboxylate] | ≤ 1000 | ≤ 1000
CC(C)CC[C@H]1C=C(c2ccc(O)c(N3CC(=O)NS3(=O)=O)c2F)CN1C(=O)O[C@@H](C)OC(=O)C1CCCC1 [Compound 152, (S)-1-((cyclopentanecarbonyl)oxy)ethyl (S)-4-(3-(1,1-dioxido-4-oxo-1,2,5-thiadiazolidin-2-yl)-2-fluoro-4-hydroxyphenyl)-2-isopentyl-2,5-dihydro-1H-pyrrole-1-carboxylate] | ≤ 1000 | > 1000
CC(C)C(=O)O[C@@H](C)OC(=O)N1CC(c2ccc(O)c(N3CC(=O)NS3(=O)=O)c2F)=C[C@@H]1CCC1CC1 [Compound 151, (R)-1-(isobutyryloxy)ethyl (S)-2-(2-cyclopropylethyl)-4-(3-(1,1-dioxido-4-oxo-1,2,5-thiadiazolidin-2-yl)-2-fluoro-4-hydroxyphenyl)-2,5-dihydro-1H-pyrrole-1-carboxylate] | ≤ 1000 | ≤ 1000
CC(C)CC[C@H]1C=C(c2ccc(O)c(N3CC(=O)NS3(=O)=O)c2F)CN1C(=O)OC(C)OC(=O)C1CCCC1 (stereo partly drawn) [Compound 153, 1-((cyclopentanecarbonyl)oxy)ethyl (2S)-4-(3-(1,1-dioxido-4-oxo-1,2,5-thiadiazolidin-2-yl)-2-fluoro-4-hydroxyphenyl)-2-isopentyl-2,5-dihydro-1H-pyrrole-1-carboxylate] | > 1000 | > 1000
O=C1CN(c2c(O)cc(C3=CCNC3)cc2F)S(=O)(=O)N1 [Compound 128, 5-(4-(2,5-dihydro-1H-pyrrol-3-yl)-2-fluoro-6-hydroxyphenyl)-1,2,5-thiadiazolidin-3-one 1,1-dioxide] | ≤ 1000 | ≤ 1000
O=C1CN(c2c(O)ccc(CC3CCNCC3)c2F)S(=O)(=O)N1 [Compound 127, 5-(2-fluoro-6-hydroxy-3-(piperidin-4-ylmethyl)phenyl)-1,2,5-thiadiazolidin-3-one 1,1-dioxide] | ≤ 1000 | ≤ 1000
O=C1CN(c2c(O)cc(C3CCCNC3)cc2F)S(=O)(=O)N1 (centres unmarked) [Compound 138, 5-(2-fluoro-6-hydroxy-4-(piperidin-3-yl)phenyl)-1,2,5-thiadiazolidin-3-one 1,1-dioxide] | ≤ 1000 | ≤ 1000

Further lines, results first:

IC50 [1] [nM] | IC50 [2] [nM] | SMILES
≤ 1000 | ≤ 1000 | CC1CC1C1C=C(c2ccc(O)c(N3CC(=O)NS3(=O)=O)c2F)CN1 (centres unmarked) [Compound 117, 5-(2-fluoro-6-hydroxy-3-(5-(2-methylcyclopropyl)-2,5-dihydro-1H-pyrrol-3-yl)phenyl)-1,2,5-thiadiazolidin-3-one 1,1-dioxide]
≤ 1000 | ≤ 1000 | N#CCCCC1C=C(c2ccc(O)c(N3CC(=O)NS3(=O)=O)c2F)CN1 (centres unmarked) [Compound 119, 4-(4-(3-(1,1-dioxido-4-oxo-1,2,5-thiadiazolidin-2-yl)-2-fluoro-4-hydroxyphenyl)-2,5-dihydro-1H-pyrrol-2-yl)butanenitrile]
≤ 1000 | ≤ 1000 | CC1(CCC2C=C(c3ccc(O)c(N4CC(=O)NS4(=O)=O)c3F)CN2)CC1 (centres unmarked) [Compound 104, 5-(2-fluoro-6-hydroxy-3-(5-(2-(1-methylcyclopropyl)ethyl)-2,5-dihydro-1H-pyrrol-3-yl)phenyl)-1,2,5-thiadiazolidin-3-one 1,1-dioxide]
≤ 1000 | ≤ 1000 | O=C1CN(c2c(O)ccc(C3=CC4CCCN4C3)c2F)S(=O)(=O)N1 (centres unmarked) [Compound 139, 5-(2-fluoro-6-hydroxy-3-(2,3,5,7a-tetrahydro-1H-pyrrolizin-6-yl)phenyl)-1,2,5-thiadiazolidin-3-one 1,1-dioxide]
≤ 1000 | ≤ 1000 | O=C1CN(c2c(O)ccc(C3=C[C@H](CCC4CC4)NC3)c2F)S(=O)(=O)N1 [Compound 130, (S)-5-(3-(5-(2-cyclopropylethyl)-2,5-dihydro-1H-pyrrol-3-yl)-2-fluoro-6-hydroxyphenyl)-1,2,5-thiadiazolidin-3-one 1,1-dioxide]
≤ 1000 | ≤ 1000 | CC(C)CC[C@H]1C=C(c2ccc(O)c(N3CC(=O)NS3(=O)=O)c2F)CN1 [Compound 145, (S)-5-(2-fluoro-6-hydroxy-3-(5-isopentyl-2,5-dihydro-1H-pyrrol-3-yl)phenyl)-1,2,5-thiadiazolidin-3-one 1,1-dioxide]
≤ 1000 | ≤ 1000 | O=C1CN(c2c(O)ccc(C3=CC(C4CC4)NC3)c2F)S(=O)(=O)N1 (centres unmarked) [Compound 109, 5-(3-(5-cyclopropyl-2,5-dihydro-1H-pyrrol-3-yl)-2-fluoro-6-hydroxyphenyl)-1,2,5-thiadiazolidin-3-one 1,1-dioxide]
≤ 1000 | ≤ 1000 | O=C1CN(c2c(O)ccc(C3=CC(CC4CCC4)NC3)c2F)S(=O)(=O)N1 (centres unmarked) [Compound 126, 5-(3-(5-(cyclobutylmethyl)-2,5-dihydro-1H-pyrrol-3-yl)-2-fluoro-6-hydroxyphenyl)-1,2,5-thiadiazolidin-3-one 1,1-dioxide]
≤ 1000 | ≤ 1000 | O=C1CN(c2c(O)ccc(C3=CC(CCCC(F)F)NC3)c2F)S(=O)(=O)N1 (centres unmarked) [Compound 137, 5-(3-(5-(4,4-difluorobutyl)-2,5-dihydro-1H-pyrrol-3-yl)-2-fluoro-6-hydroxyphenyl)-1,2,5-thiadiazolidin-3-one 1,1-dioxide]
